These results are taken from ChEMBL document CHEMBL1201862, “PubChem BioAssay data set” (2004).

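Five compound concentrations were applied to cells in 96-well plates for 48 hours; endpoints were derived by simple linear interpolation of the resulting dose-response curve. At the GI50, growth is halved.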 Calls of active or inactive are those of the source. No stated cut-off is given here; in the data, active = GI50 up to about 1.1 µM and inactive = higher.

Test systems include NCI/ADR-RES; Hs-578T; MDA-MB-231.
Holding throughout (test): DTP human tumour cell line panel, 48 h

With `COc1ccnc2c1C(=O)c1nc3ccccc3c3ccnc-2c13`, the figures for the GI50 in the assay on NCI/ADR-RES, in the assay with Hs-578T and in the assay with MDA-MB-231 were 0.0713 µM (active), 1.55 µM (inactive) and 0.21 µM (active), respectively.
`Cc1cc2c(cc1-c1cc3c(cc1C)C(C(C)C)=C(O)C(=O)/C3=C\Nc1cccc3c(N)cccc13)/C(=C/Nc1cccc3c(N)cccc13)C(=O)C(O)=C2C(C)C`: the GI50 in the assay on NCI/ADR-RES, in the assay on Hs-578T and in the assay on MDA-MB-231 was > 100 µM (inactive) in each case.
For the compound `Cc1ccc(OCC2OC(n3cnc4c(Cl)nc(Nc5cc(Cl)cc(Cl)c5)nc43)CC2Oc2ccc(C)cc2)cc1` (stereo unspecified), the GI50 with NCI/ADR-RES, with Hs-578T and in the assay with MDA-MB-231 was > 100 µM (inactive) in each case.
For `CCOC(=O)C1(N)CC1`, the GI50 in the assay on NCI/ADR-RES, in the assay with Hs-578T and in the assay with MDA-MB-231 was > 100 µM (inactive) throughout.
As for `O=C(N/N=C(COc1ccc(Cl)cc1)\N=C\c1cccnc1)c1ccncc1`, the values for the GI50 with NCI/ADR-RES, with Hs-578T and in the assay on MDA-MB-231 were 57.4 µM (inactive), 23.7 µM (inactive) and > 100 µM (inactive), respectively.
On to `O=c1[nH]c(=S)c2cc3c(=S)[nH]c(=O)n(CCC(c4ccccc4)(c4ccccc4)c4ccccc4)c3nc2n1CCC(c1ccccc1)(c1ccccc1)c1ccccc1`, for which the GI50 (in general, the concentration giving 50% growth inhibition) is > 100 µM (inactive) in the assay with NCI/ADR-RES and 59.4 µM (inactive) in the assay with MDA-MB-231.
`CCN(CC)CCNc1ccc([N+](=O)[O-])c2nc3ccc(OC)cc3c(N)c12`: the GI50 in the assay on NCI/ADR-RES was 1.24 µM (inactive); in the assay on Hs-578T, 1.27 µM (inactive); in the assay on MDA-MB-231, 1.16 µM (inactive).
On to `Cn1c(=O)c2ccccc2[n+]2c(-c3cccc([N+](=O)[O-])c3)csc12`, for which the GI50 in the assay on NCI/ADR-RES is 9.51 µM (inactive); in the assay with Hs-578T it was 18.7 µM (inactive); in the assay on MDA-MB-231 it was 30.8 µM (inactive).
As for `C1CNOCCCONCCCNOCCCONC1`, the GI50 in the assay on NCI/ADR-RES is 95.3 µM (inactive); with Hs-578T, 59.3 µM (inactive); in the assay on MDA-MB-231, 26.8 µM (inactive).
On to `Nc1nn2c(=O)c3ccccc3nc2s1`, for which the GI50 in the assay with NCI/ADR-RES and with Hs-578T was > 100 µM (inactive) each time.
Turning to `COC1CC(OC2C(C)OC(OC3C(C)OC(OC4C(C)OC(O[C@H]5CC[C@@]6(C)C(=CC[C@]7(O)[C@@H]6C[C@@H](OC(C)=O)[C@@]6(C)[C@]7(O)CC[C@@]6(O)C(C)=O)C5)CC4OC)CC3OC)CC2OC)OC(C)C1O` (stereo partly specified), the GI50 in the assay with NCI/ADR-RES, with Hs-578T and in the assay with MDA-MB-231 was > 25 µM (inactive) each time.
Consider `CCOC(=O)/C=C/CCC(C)(C)COC(C)=O`, for which the GI50 with NCI/ADR-RES, in the assay with Hs-578T and in the assay with MDA-MB-231 was > 10 µM (inactive) each time.
For `COc1ccc(-c2c3c(n(C4OC(COC(C)=O)C(OC(C)=O)C(OC(C)=O)C4OC(C)=O)c(=S)c2C#N)CCC3)cc1` (stereo unspecified), the GI50 in the assay with NCI/ADR-RES and with Hs-578T was > 100 µM (inactive) in each case.
As for `CCc1cc2c(oc3c4ccccc4ccc23)c(=O)[nH]1`, the GI50 with Hs-578T is > 10 µM (inactive).
`ClCc1nc2cc(Cl)ccc2o1`: the values for the GI50 in the assay with NCI/ADR-RES, with Hs-578T and with MDA-MB-231 were 20.3 µM (inactive), 13.7 µM (inactive) and 3.16 µM (inactive), respectively.
Regarding `O=C1C(NCCN2CCOCC2)=C(Cl)C(=O)c2ncccc21`, the GI50 in the assay with Hs-578T is 1.21 µM (inactive); in the assay with MDA-MB-231, 1.58 µM (inactive).
Take `N#CCc1nc(C#N)c(N)o1`: the GI50 in the assay on NCI/ADR-RES, in the assay on Hs-578T and with MDA-MB-231 was > 100 µM (inactive) throughout.
On to `OC1OC(c2ccc[nH]2)C(F)(F)C(F)(F)C1(F)F` (stereo unspecified), for which the GI50 with NCI/ADR-RES, in the assay on Hs-578T and in the assay with MDA-MB-231 was > 100 µM (inactive) throughout.
On to `COC(=O)C1(c2cc3ccccc3n2S(=O)(=O)c2ccccc2)CC2C=CC1NC2` (stereo unspecified), for which the GI50 in the assay on NCI/ADR-RES was 2.42 µM (inactive); in the assay with MDA-MB-231, 1.79 µM (inactive).
Consider `O=C(Nc1cccc(C(F)(F)F)c1)O/N=C(/Cl)CCl`, for which the GI50 with NCI/ADR-RES was > 100 µM (inactive); in the assay with Hs-578T, > 100 µM (inactive); in the assay on MDA-MB-231, 17.1 µM (inactive).
On to `COc1ccc(C[C@H]2COC(=O)[C@@H]2Cc2ccc(Br)cc2)cc1OC`, for which the GI50 in the assay with NCI/ADR-RES is 10.7 µM (inactive); in the assay with Hs-578T it was 26.5 µM (inactive); with MDA-MB-231, 24 µM (inactive).
On the same counts, the results for `CN(C)c1ccc(/C=C2\N=C(NNc3ccccc3)NC2=O)cc1` are 19.8 µM (inactive), 35 µM (inactive) and 13.7 µM (inactive).
For the compound `C/C=C(/C)C(=O)O[C@H](C[C@@H](C)[C@H]1CC(c2ccoc2)OC1=O)[C@@]1(C)C(=O)CCC2O[C@]21C` (stereo partly specified), the GI50 with NCI/ADR-RES, in the assay on Hs-578T and with MDA-MB-231 was > 100 µM (inactive) throughout.
Regarding `CC(C)CCCC(C)[C@H]1CC[C@H]2n3c(nnc3-c3ccccc3)CCC[C@]12C` (stereo partly specified), the GI50 in the assay with NCI/ADR-RES is 9.93 µM (inactive); in the assay with Hs-578T, 18.4 µM (inactive); in the assay with MDA-MB-231, 15 µM (inactive).
In the case of `CN1CNc2nc(N)n(C)c(=O)c2C1`, the GI50 in the assay on NCI/ADR-RES was > 10 µM (inactive).
As to `O=S(=O)(/N=S(/Nc1ccccc1)C(F)(F)Cl)c1ccccc1` (stereo unspecified), the GI50 in the assay with NCI/ADR-RES, in the assay on Hs-578T and in the assay with MDA-MB-231 was > 100 µM (inactive) each time.
Regarding `CN(C)CCNS(=O)(=O)N(C)C`, the GI50 in the assay on NCI/ADR-RES, in the assay with Hs-578T and in the assay with MDA-MB-231 was > 100 µM (inactive) throughout.
Take `CCOC(=O)C(C(=O)OCC)=C1NC2(c3ccccc3Nc3ccc(C)cc32)C(C#N)S1` (stereo unspecified): the GI50 is 5.2 µM (inactive) in the assay with NCI/ADR-RES and 14.2 µM (inactive) in the assay on Hs-578T.
With `COc1c2cc([N+](=O)[O-])cc1CNC(=O)CN1CCOCCOCCN(CCOCCOCC1)CC(=O)NC2`, the GI50 in the assay on NCI/ADR-RES, in the assay on Hs-578T and in the assay with MDA-MB-231 was > 100 µM (inactive) in each case.
With `COc1ccccc1N1C(=O)/C(=C\c2cccc(Oc3ccccc3)c2)S(=O)(=O)C1c1ccccc1` (stereo unspecified), the GI50 in the assay with NCI/ADR-RES is 2.92 µM (inactive); with MDA-MB-231, > 100 µM (inactive).
Take `Cc1c(O)c(OC2OC(CO)C(O)C(O)C2O)cc2c1C=C[C@@H]1[C@@]2(C)C(=O)C[C@]2(C)[C@@H]([C@@](C)(O)C(=O)CCC(C)(C)O)[C@H](O)C[C@@]12C` (stereo partly specified): the GI50 in the assay with NCI/ADR-RES is 25.5 µM (inactive); in the assay with MDA-MB-231, 21.1 µM (inactive).
As for `N[C@H](C(=O)O)[C@@H]1CC(Br)=NO1`, the GI50 in the assay on NCI/ADR-RES, with Hs-578T and in the assay with MDA-MB-231 was > 100 µM (inactive) each time.
Consider `COc1ccc(/C=C2/NC(=S)N=C2Cl)cc1`, for which the GI50 in the assay with NCI/ADR-RES, in the assay on Hs-578T and with MDA-MB-231 was > 100 µM (inactive) each time.
On to `C=CCOC(=O)N1c2ccc(O[Si](C)(C)C(C)(C)C)cc2[C@@]23O[C@@]24[C@@H]1C#C/C=C\C#C[C@]3(O)C(OC)(OC)C[C@@H]4C`, for which the GI50 with NCI/ADR-RES was 41.6 µM (inactive); in the assay on Hs-578T, 37.8 µM (inactive); in the assay with MDA-MB-231, > 100 µM (inactive).
Consider `CC1=C(C)C(=O)OC(C(C)(O)C2(O)CC3OC34C3CC(O)C56OC5C=CC(=O)C6(C)C3CCC42C)C1` (stereo unspecified), for which the GI50 was 1.77 µM (inactive) with Hs-578T and 1.78 µM (inactive) in the assay on MDA-MB-231.
With `Cc1ccc(/N=C2\SC(=S)N(CCC[N+](C)(C)C)\C2=N/c2ccc(C)cc2)cc1`, the GI50 with Hs-578T is 4.08 µM (inactive); in the assay on MDA-MB-231, 14.3 µM (inactive).
`COC1OC(C(=O)O)C2OC(C)(C)OC12` (stereo unspecified): the GI50 with NCI/ADR-RES and in the assay with MDA-MB-231 was > 100 µM (inactive) throughout.
